# Results taken from ChEMBL document CHEMBL1909294, “Translating clinical findings into knowledge in drug safety evaluation--drug induced liver injury prediction system (DILIps)” (PLoS Comput Biol, 2011).
# Assays:
# Hepatotoxicity [1] = system: Hepatotoxicity;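 as to HepSE cirrhosis: cirrhosis hepatic side effect score taken from the DILIps (drug-induced liver injury prediction) training set; call rule not given here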;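 as to HepSE elevated liver function tests: hepatic side effect score for raised liver function tests, as recorded in the DILIps training set used for predicting drug-induced liver injury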;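 as to HepSE hepatic necrosis: score of hepatic side effects for hepatic necrosis, drawn from the training data of DILIps, a prediction system for drug-induced liver injury; call rule not given here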;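 as to HepSE jaundice: Jaundice-related hepatic side-effect score drawn from the training data of the DILIps (drug-induced liver injury prediction system); call rule not given here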;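 as to HepSE liver fatty: hepatic side effect score for fatty liver, taken from the DILIps training set for predicting drug-induced liver injury; call rule not given here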;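 as to HepSE liver function tests abnormal: hepatic side effect score taken from the DILIps (drug-induced liver injury prediction system) training data, here covering abnormal liver function test findings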
# Hepatotoxicity [2] = system: Hepatotoxicity; remark: listed apart in the source;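 as to HepSE cirrhosis: cirrhosis hepatic side effect score taken from the DILIps (drug-induced liver injury prediction) training set; call rule not given here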;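 as to HepSE elevated liver function tests: hepatic side effect score for raised liver function tests, as recorded in the DILIps training set used for predicting drug-induced liver injury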;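 as to HepSE hepatic necrosis: score of hepatic side effects for hepatic necrosis, drawn from the training data of DILIps, a prediction system for drug-induced liver injury; call rule not given here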;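 as to HepSE jaundice: Jaundice-related hepatic side-effect score drawn from the training data of the DILIps (drug-induced liver injury prediction system); call rule not given here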;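 as to HepSE liver fatty: hepatic side effect score for fatty liver, taken from the DILIps training set for predicting drug-induced liver injury; call rule not given here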;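 as to HepSE liver function tests abnormal: hepatic side effect score taken from the DILIps (drug-induced liver injury prediction system) training data, here covering abnormal liver function test findings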
# Hepatotoxicity [3] = system: Hepatotoxicity; remark: listed apart in the source;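 as to HepSE cirrhosis: cirrhosis hepatic side effect score taken from the DILIps (drug-induced liver injury prediction) training set; call rule not given here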;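 as to HepSE hepatic necrosis: score of hepatic side effects for hepatic necrosis, drawn from the training data of DILIps, a prediction system for drug-induced liver injury; call rule not given here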;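 as to HepSE jaundice: Jaundice-related hepatic side-effect score drawn from the training data of the DILIps (drug-induced liver injury prediction system); call rule not given here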;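 as to HepSE liver fatty: hepatic side effect score for fatty liver, taken from the DILIps training set for predicting drug-induced liver injury; call rule not given here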;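 as to HepSE liver function tests abnormal: hepatic side effect score taken from the DILIps (drug-induced liver injury prediction system) training data, here covering abnormal liver function test findings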
# Hepatotoxicity [4] = system: Hepatotoxicity; remark: listed apart in the source;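 as to HepSE cirrhosis: cirrhosis hepatic side effect score taken from the DILIps (drug-induced liver injury prediction) training set; call rule not given here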;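 as to HepSE hepatic necrosis: score of hepatic side effects for hepatic necrosis, drawn from the training data of DILIps, a prediction system for drug-induced liver injury; call rule not given here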;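 as to HepSE jaundice: Jaundice-related hepatic side-effect score drawn from the training data of the DILIps (drug-induced liver injury prediction system); call rule not given here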;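 as to HepSE liver fatty: hepatic side effect score for fatty liver, taken from the DILIps training set for predicting drug-induced liver injury; call rule not given here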;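 as to HepSE liver function tests abnormal: hepatic side effect score taken from the DILIps (drug-induced liver injury prediction system) training data, here covering abnormal liver function test findings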
# Hepatotoxicity [5] = system: Hepatotoxicity; remark: listed apart in the source
# Hepatotoxicity [6] = system: Hepatotoxicity; remark: listed apart in the source
# Hepatotoxicity [7] = system: Hepatotoxicity; remark: listed apart in the source
# Hepatotoxicity [8] = system: Hepatotoxicity; remark: listed apart in the source
# Hepatotoxicity [9] = system: Hepatotoxicity; remark: listed apart in the source
# Hepatotoxicity [10] = system: Hepatotoxicity; remark: listed apart in the source
# Hepatotoxicity [11] = system: Hepatotoxicity; remark: listed apart in the source
# Hepatotoxicity [12] = system: Hepatotoxicity; remark: listed apart in the source
# Hepatotoxicity [13] = system: Hepatotoxicity; remark: listed apart in the source
# Hepatotoxicity [14] = system: Hepatotoxicity; remark: listed apart in the source
SMILES,HepSE_hepatic necrosis (Hepatotoxicity [1]),HepSE_liver fatty (Hepatotoxicity [2]),HepSE_jaundice (Hepatotoxicity [3]),HepSE_liver function tests abnormal (Hepatotoxicity [4]),HepSE_cirrhosis (Hepatotoxicity [5]),HepSE_bilirubinemia (Hepatotoxicity [6]),HepSE_elevated liver function tests (Hepatotoxicity [7]),HepSE_cholecystitis (Hepatotoxicity [8]),HepSE_liver disease (Hepatotoxicity [9]),HepSE_hepatomegaly (Hepatotoxicity [10]),HepSE_Combined Scores (Hepatotoxicity [11]),HepSE_hepatitis (Hepatotoxicity [12]),HepSE_hepatic failure (Hepatotoxicity [13]),HepSE_cholelithiasis (Hepatotoxicity [14]),also measured
CC(C)C[C@H](NC(=O)[C@@H](COC(C)(C)C)NC(=O)[C@H](Cc1ccc(O)cc1)NC(=O)[C@H](CO)NC(=O)[C@H](Cc1c[nH]c2ccccc12)NC(=O)[C@H](Cc1cnc[nH]1)NC(=O)[C@@H]1CCC(=O)N1)C(=O)N[C@@H](CCCNC(=N)N)C(=O)N1CCC[C@H]1C(=O)NNC(N)=O [GOSERELIN],0,0,0,0,0,0,0,0,0,0,0,0,0,0,
COCc1c(C(C)C)nc(C(C)C)c(/C=C/[C@@H](O)C[C@@H](O)CC(=O)O)c1-c1ccc(F)cc1 [CERIVASTATIN],1,0,1,0,1,0,0,0,0,0,4,1,0,0,
CC(=O)Oc1c(C)cc(OCC(O)CNC(C)C)c(C)c1C (configuration not stated) [METIPRANOLOL],0,0,0,0,0,0,0,0,0,0,0,0,0,0,
Cc1ccc(C(=O)c2cc(O)c(O)c([N+](=O)[O-])c2)cc1 [TOLCAPONE],,,,,,,,,,,,,,,HepSE_hepatic necrosis (Hepatotoxicity [1]; Liver): 0; HepSE_liver fatty (Hepatotoxicity [2]; Liver): 0; HepSE_jaundice (Hepatotoxicity [3]; Liver): 0; HepSE_liver function tests abnormal (Hepatotoxicity [4]; Liver): 0; HepSE_cirrhosis (Hepatotoxicity [5]; Liver): 0; HepSE_bilirubinemia (Hepatotoxicity [6]; Liver): 0; HepSE_elevated liver function tests (Hepatotoxicity [7]; Liver): 0; HepSE_cholecystitis (Hepatotoxicity [8]; Liver): 1; HepSE_liver disease (Hepatotoxicity [9]; Liver): 0; HepSE_hepatomegaly (Hepatotoxicity [10]; Liver): 0; HepSE_Combined Scores (Hepatotoxicity [11]; Liver): 2; HepSE_hepatitis (Hepatotoxicity [12]; Liver): 0; HepSE_hepatic failure (Hepatotoxicity [13]; Liver): 0; HepSE_cholelithiasis (Hepatotoxicity [14]; Liver): 1
COc1ccc(-c2ccc3cc(C(=O)O)ccc3c2)cc1C12CC3CC(CC(C3)C1)C2,0,0,0,0,0,0,0,0,0,0,1,1,0,0,
CCC(=O)O[C@]1(C(=O)CCl)[C@@H](C)C[C@H]2[C@@H]3C[C@H](F)C4=CC(=O)C=C[C@]4(C)[C@@]3(F)[C@@H](O)C[C@@]21C [HALOBETASOL PROPIONATE],0,0,0,0,0,0,0,0,0,0,0,0,0,0,
O=C1Nc2ccc(Cl)cc2C(c2ccccc2Cl)=NC1O (configuration not stated) [LORAZEPAM],0,0,1,1,0,0,0,0,0,0,2,0,0,0,
Cc1ccc(-c2cc(C(F)(F)F)nn2-c2ccc(S(N)(=O)=O)cc2)cc1 [CELECOXIB],,,,,,,,,,,,,,,HepSE_hepatic necrosis (Hepatotoxicity [1]; Liver): 0; HepSE_liver fatty (Hepatotoxicity [2]; Liver): 0; HepSE_jaundice (Hepatotoxicity [3]; Liver): 1; HepSE_liver function tests abnormal (Hepatotoxicity [4]; Liver): 1; HepSE_cirrhosis (Hepatotoxicity [5]; Liver): 0; HepSE_bilirubinemia (Hepatotoxicity [6]; Liver): 0; HepSE_elevated liver function tests (Hepatotoxicity [7]; Liver): 0; HepSE_cholecystitis (Hepatotoxicity [8]; Liver): 0; HepSE_liver disease (Hepatotoxicity [9]; Liver): 0; HepSE_hepatomegaly (Hepatotoxicity [10]; Liver): 0; HepSE_Combined Scores (Hepatotoxicity [11]; Liver): 5; HepSE_hepatitis (Hepatotoxicity [12]; Liver): 1; HepSE_hepatic failure (Hepatotoxicity [13]; Liver): 1; HepSE_cholelithiasis (Hepatotoxicity [14]; Liver): 1
O=P(O)(O)C(Cl)(Cl)P(=O)(O)O [CLODRONIC ACID],0,0,0,0,0,0,0,0,1,0,1,0,0,0,
CCN(CC)CCOC(=O)c1ccc(N)cc1Cl [CHLOROPROCAINE],0,0,0,0,0,0,0,0,0,0,0,0,0,0,
Clc1ccc(CCC(Cn2ccnc2)Sc2c(Cl)cccc2Cl)cc1 (configuration not stated) [BUTOCONAZOLE],0,0,0,0,0,0,0,0,0,0,0,0,0,0,
C[C@@H](NCCCc1cccc(C(F)(F)F)c1)c1cccc2ccccc12,0,0,0,0,0,0,0,0,0,0,0,0,0,0,
CCCCCNC(=N)N/N=C/c1c[nH]c2ccc(OC)cc12 [TEGASEROD],0,0,0,0,0,1,0,1,0,0,4,1,0,1,
